Experiments:
[1] = target: T1, Adenosine receptor A3 (Homo sapiens, UniProt P0DMS8); assay: Agonist activity at human A3 adenosine receptor expressed in Flp-In-CHO cells assessed as calcium influx by competitive binding assay; type: functional, cell-based
T1 sequence (P0DMS8 whole entry): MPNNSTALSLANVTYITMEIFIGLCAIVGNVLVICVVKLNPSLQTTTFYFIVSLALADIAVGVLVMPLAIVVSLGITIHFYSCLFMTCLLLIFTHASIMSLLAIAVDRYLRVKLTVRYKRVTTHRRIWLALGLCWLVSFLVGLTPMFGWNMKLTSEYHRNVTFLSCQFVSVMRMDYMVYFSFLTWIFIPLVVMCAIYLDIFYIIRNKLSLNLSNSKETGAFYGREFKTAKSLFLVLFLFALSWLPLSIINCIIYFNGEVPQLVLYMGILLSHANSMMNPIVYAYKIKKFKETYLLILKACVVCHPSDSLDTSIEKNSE

[2] = target: T1, Adenosine receptor A3; assay: Agonist activity at A3 adenosine receptor (unknown origin); type: functional
[3] = target: T2, Adenosine receptor A1 (Homo sapiens, UniProt P30542); assay: Binding affinity to N-terminal NLuc tagged human A1 adenosine receptor expressed in Flp-In-CHO cells by competitive binding assay; type: cell-based
T2 sequence (P30542 whole entry): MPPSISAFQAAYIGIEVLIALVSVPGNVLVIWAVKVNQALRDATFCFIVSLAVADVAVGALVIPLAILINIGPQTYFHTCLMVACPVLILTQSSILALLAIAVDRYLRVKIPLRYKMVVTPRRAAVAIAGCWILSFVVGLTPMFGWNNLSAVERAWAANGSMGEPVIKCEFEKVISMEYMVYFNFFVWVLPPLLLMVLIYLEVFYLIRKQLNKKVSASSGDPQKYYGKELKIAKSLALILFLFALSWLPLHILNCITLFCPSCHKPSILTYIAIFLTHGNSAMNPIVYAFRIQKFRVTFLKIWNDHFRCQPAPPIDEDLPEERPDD

[4] = target: T1, Adenosine receptor A3; assay: Antagonist activity at N-terminal NLuc tagged human A3 adenosine receptor; type: functional

Row | EC50 [1] [nM] | EC50 [2] [nM] | Ki [3] [nM] | Kd [4] [nM] | Compound
1 | 1260 | 50.1 | – | – | O=C(CCCCCNC(=O)COc1ccc(/C=C/C2=[N+]3C(=Cc4ccc(-c5cccs5)n4[B-]3(F)F)C=C2)cc1)NCCCCNc1ncnc2c1ncn2[C@@H]1O[C@H](CO)[C@@H](O)[C@H]1O
2 | – | – | 9.33 | 30.9 | CCCn1c(=O)c2[nH]c(-c3ccc(OCC(=O)NCCNC(=O)CCCCNC(=O)COc4ccc(/C=C/C5=[N+]6C(=Cc7ccc(-c8cccs8)n7[B-]6(F)F)C=C5)cc4)cc3)nc2n(CCC)c1=O

Source: ChEMBL document CHEMBL5042471, “Development and Application of Subtype-Selective Fluorescent Antagonists for the Study of the Human Adenosine A1 Receptor in Living Cells” (J Med Chem, 2021)
